The assay addresses Envelope glycoprotein gp160 (Human immunodeficiency virus 1, UniProt Q6QLK5). Description: inhibitors of HIV fusion peptide binding, primary screen, biochemical, uHTS, fluorescence dequenching (AID 1986).

Activity calls are given as the source filed them. Rule as the data show it: actives have a measured IC50 and inactives only a lower limit.

Sequence of Envelope glycoprotein gp160 (Q6QLK5 whole entry, the tested form may be a part): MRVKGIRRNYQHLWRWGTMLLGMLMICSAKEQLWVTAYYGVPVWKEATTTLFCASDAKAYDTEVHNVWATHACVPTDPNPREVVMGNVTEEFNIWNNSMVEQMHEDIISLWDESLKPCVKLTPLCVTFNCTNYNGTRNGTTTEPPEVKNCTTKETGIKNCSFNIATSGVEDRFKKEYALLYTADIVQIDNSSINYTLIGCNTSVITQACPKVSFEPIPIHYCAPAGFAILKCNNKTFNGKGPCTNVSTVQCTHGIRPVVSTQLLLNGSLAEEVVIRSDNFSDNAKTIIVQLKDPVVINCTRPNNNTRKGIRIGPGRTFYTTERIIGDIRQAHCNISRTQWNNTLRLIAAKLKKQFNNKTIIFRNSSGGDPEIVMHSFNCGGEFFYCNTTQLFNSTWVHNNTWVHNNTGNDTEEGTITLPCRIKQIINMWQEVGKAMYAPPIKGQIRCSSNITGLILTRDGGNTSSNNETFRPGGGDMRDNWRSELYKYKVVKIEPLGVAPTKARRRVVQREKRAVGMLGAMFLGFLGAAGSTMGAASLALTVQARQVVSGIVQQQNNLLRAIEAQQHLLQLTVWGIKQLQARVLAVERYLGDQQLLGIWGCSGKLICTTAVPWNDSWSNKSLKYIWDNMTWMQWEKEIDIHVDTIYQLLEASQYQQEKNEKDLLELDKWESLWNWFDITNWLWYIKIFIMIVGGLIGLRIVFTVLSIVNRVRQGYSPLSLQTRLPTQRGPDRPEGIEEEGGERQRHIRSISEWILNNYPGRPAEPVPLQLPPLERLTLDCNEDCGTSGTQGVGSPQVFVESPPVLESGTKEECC

In general, IC50 refers to the concentration needed to halve the response being measured. As for `O=C(Nc1cc(C(=O)Nc2ccccc2C(=O)O)cc(C(=O)Nc2ccccc2C(=O)O)c1)c1ccccc1`, the IC50 is 6.36 µM (active).
For the compound `COc1ccc(C(=O)Nc2ccc(/C(C)=N/NC(=O)c3ccncc3)cc2)cc1`, the IC50 is 15 µM (active).

(Values after ChEMBL document CHEMBL1201862, “PubChem BioAssay data set” (2004).)
